In the oligonucleotide strings, read from the 5' end, every base follows the letter of its sugar. An asterisk marks phosphorothioate; unmarked linkages are phosphodiester. Other units and linkages are bracketed, terminal groups are in braces. A string of capitals states the bases alone. e = 2'-O-(2-methoxyethyl) (MOE); [5mC] = 5-methylcytosine
Columns and labels:
[1] = test system: mir-23b miRNA; assay: pGL3-mir-23b sensor luciferase assay in HeLa cells; type: cell-based, human; details: pGL3-mir-23b sensor-expressing HeLa cells
[2] = test system: pGL3-Control luciferase reporter; assay: pGL3-Control luciferase assay in HeLa cells (reporter without miRNA binding site); type: cell-based, human; details: for luciferase expression: 24 hours; for luciferase expression (% lucif. only control): pGL3-Control, 48 hours
From the text: In one embodiment, an expression system based on the pGL3-Control (Promega Corp., Madison Wis.) vector containing a CMV promoter controlling expression of a luciferase reporter sequence was used in transient transfections of HeLa cells with plasmids expressing miRNA or pri-miRNA mimics. To assess the ability of miRNA mimics to bind and regulate the expression of the luciferase reporter gene, two reporter plasmids were constructed: 1) a synthetic DNA fragment comprising two sites perfectly complementary to mir-143 were inserted into the pGL3-Control luciferase reporter vector, to create the pGL3-mir-143 sensor plasmid, and 2) a DNA fragment comprising the 3′-UTR of the LIM domain only 4 (LMO4) gene (predicted to be regulated by mir-143) was inserted into pGL3-Control to create pGL3-LMO4; this fragment was PCR-amplified using a primer beginning at position 1261 of the LMO4 sequence (GenBank Accession NM_006769.2, incorporated herein as SEQ ID: 809) and the downstream primer hybridizing to the poly-A tail. In each of these plasmids, the target site was placed downstream of the luciferase coding sequence and upstream of the polyadenylation signal in the 3′-UTR of the luciferase reporter vector. The unmodified pGL3-Control luciferase reporter vector was used as a control.
HeLa cells were routinely cultured and passaged as described, and on the day before transfection with expression or reporter plasmids, the HeLa cells were seeded onto 24-well plates 50,000 cells/well. Cells were transfected according to standard published procedures with various combinations of plasmids using 2 μg Lipofectamine™ 2000 Reagent (Invitrogen) per μg of plasmid DNA, or, when transfecting oligomeric compounds, 1.25 μg of Lipofectamine™ 2000 Reagent per 100 nM oligonucleotide or double-stranded RNA. The luciferase signal in each well was normalized to the Renilla luciferase (RL) activity produced from a co-transfected plasmid, pRL-CMV, which was transfected at 0.5 μg per well. Cells were treated at various dosages (4 nM, 20 nM, and 100 nM) with the following oligomeric compound mimics: 1) “ds-mir-143,” 2) “ds-Control,” 3) “pCR3-pri-mir-143,” or 4) “pri-mir-control,” as described supra. In accordance with methods described in Example 12, supra, a luciferase assay was performed 48-hours after transfection. Briefly, cells were lysed in passive lysis buffer (PLB; Promega), and 20 ul of the lysate was then assayed for RL activity using a Dual Luciferase Assay kit (Promega) according to the manufacturer's protocol. The results below are an average of three trials and are presented as percent pGL3-Control luciferase expression normalized to pRL-CMV expression (RL).
An expression system based on the pGL3-Control (Promega Corp., Madison Wis.) reporter vector and comprising predicted miRNA binding sites was used in transient transfections of HeLa cells with plasmids expressing oligomeric compounds mimicking miRNAs, pre-miRNAs or pri-miRNAs in order to assess the ability of these miRNA mimics to bind and regulate the expression of the luciferase reporter. The effect of increasing the copy number of the miRNA-binding site in the target was also tested by including multiple binding sites in artificial reporter constructs. It is understood that the presence of multiple miRNA-binding sites in a target can include binding sites for different miRNAs.
HeLa cells were routinely cultured and passaged as described. In some embodiments, HeLa cells were transfected with 0.05 μg of the relevant pGL3-sensor plasmid and 0.01 μg pRL-CMV plasmid. Additionally, in some embodiments, cells were treated at various dosages (11 nM, 33 nM, and 100 nM) with the following oligomeric compound mimics: 1) ds-mir-143, or 2) ds-Control as described. In accordance with methods described in Example 12, a luciferase assay was performed 24-hours after transfection. The results, shown in Tables 40 and 41, are an average of three trials. […]

Substance	Fold change luciferase ([1]; 1.3 nM)	Fold change luciferase ([1]; 5 nM)	Fold change luciferase ([1]; 20 nM)	luciferase expression ([2]; Table 40, pGL3-Control, 11 nM) [percent untreated control]	luciferase expression ([2]; Table 40, pGL3-Control, 33 nM) [percent untreated control]	luciferase expression ([2]; Table 40, pGL3-Control, 100 nM) [percent untreated control]	luciferase expression ([2]; Table 41, pGL3-Control, 11 nM) [percent untreated control]	luciferase expression ([2]; Table 41, pGL3-Control, 33 nM) [percent untreated control]	luciferase expression ([2]; Table 41, pGL3-Control, 100 nM) [percent untreated control]	luciferase expression (% lucif. only control) ([2]; 4 nM)	luciferase expression (% lucif. only control) ([2]; 20 nM)	luciferase expression (% lucif. only control) ([2]; 100 nM)
327924 (antisense eG*e[5mC]*eA*eA*eG*e[5mC]*e[5mC]*e[5mC]*eA*eG*eA*e[5mC]*e[5mC]*eG*e[5mC]*eA*eA*eA*eA*eA*eG) [compound 327924]	1.15	0.68	0.92									
ds-mir-143: double-stranded RNA of ISIS 342199 hybridized to its perfect complement ISIS 342200 (sense UGAGAUGAAGCACUGUAGCUCA; antisense UGAGCUACAGUGCUUCAUCUCA; RNA, backbone not given here)				90.7	94.2	72.5	110.2	124.3	92.3	101.5	123.8	131.8
